In patent US20240307374A1, “FORMULATION OF FURIN INHIBITOR FOR INHALATION” (BP ASSET V, INC., priority 2021, published 2024):
≈ marks a conversion by molar mass, not a printed value. Where “and” joins values, the source holds several entries; their conditions need not be identical. Equal entries are not always repeated. Structures can show the parent of a compound that is named as a salt.

Legend:
Assay type in all cases: physicochemical
[1] = pKa test, spectrophotometric method (UV-metric pKa)
Description: (§1) The spectrophotometric method (UV-metric pKa) and potentiometric method (pH-metric pKa) were used for pKa test of Compound (I) freeform.
1. For UV-metric pKa, the pKa values were determined by monitoring the change in UV absorbance with pH as the compound undergoes ionization.
(§2) The psKa values were extrapolated to 0% organic content using the Yasuda-Shedlovsky extrapolation procedure for pKa values.

[2] = Equilibrium solubility in pH buffers (pH 4.0-6.0) with pH adjustment; settings: pH = 4.0 buffer (50 mM citrate), RT, with pH adjustment
Description: In details, ˜5 mg of solids were suspended into 1 mL of each medium with dosing conc. at ˜5 mg/mL. Additional solids were added into the sample to generate suspension if clear solution was obtained. The suspension was equilibrated via stirring (1000 rpm) for 24 hours. The pH of the suspension was adjusted when the final pH shifted above 0.3, and the samples were stirred for another 1.5 hours after pH adjustment. The suspension was centrifuged to obtain precipitate and supernatants. Solubility, purity and pH were tested for the supernatants after filtration, and isolated precipitate was tested by XRPD.
(§3) • 1. pH=3.0 buffer (50 mM HCl+KCl): Weigh 365.39 mg KCl into a 100 mL volumetric flask (VF), and add 0.1 mL 1M HCl into the VF, and dilute to volume with water. • 2. pH=4.0 buffer (50 mM citrate): Weigh 56.74 mg citric acid and 60.18 mg trisodium citrate into a 10 mL volumetric flask, and dilute to volume with water. • 3. pH=5.0 buffer (50 mM citrate) Weigh 11.12 mg citric acid and 95.38 mg trisodium citrate into a 10 mL volumetric flask, and dilute to volume with water. • 4. pH=6.0 buffer (50 mM citrate) Weigh 11.04 mg citric acid and 130.2 mg trisodium citrate into a 10 mL volumetric flask, and dilute to volume with water. • 5. pH=6.0 buffer (50 mM phosphate) Weigh 8.7 mg Na2HPO4 and 52.6 mg NaH2PO4 into a 10 mL volumetric flask, and dilute to volume with water. • 6. pH=7.0 buffer (50 mM phosphate) Weigh 23.47 mg Na2HPO4 and 43.34 mg NaH2PO4into a 10 mL volumetric flask, and dilute to volume with water. • 7. pH=8.0 buffer (50 mM phosphate) Weigh 31.64 mg Na2HPO4 and 67.18 mg NaH2PO4into a 10 mL volumetric flask, and dilute to volume with water.

[3] = Equilibrium solubility in pH buffers (3.0-8.0), 20% captisol and water; settings: H2O, RT, 24 hrs
Description: Additional solids were added into the sample to generate suspension if clear solution obtained. The suspension was equilibrated via stirring (1000 rpm). The suspension was centrifuged to obtain precipitate and supernatants.
Solubility and pH were tested for the supernatants after filtration, and isolated precipitate was tested by XRPD.
as §3

[4] = pKa test, potentiometric method (pH-metric pKa); settings: MeOH cosolvent, Yasuda-Shedlovsky extrapolation
Description: as §1
2. For pH-metric pKa, the pKa values were determined from an examination of the shape of the resultant titration curves and fitting a suitable theoretical model for the compound's ionization behavior onto the titration data.
as §2

[5] = Log D7.4 test, n-octanol/aqueous (pH=7.4) shake flask method
Description: The detailed procedure is summarized below. • 1. Pre-equilibrate n-octanol and aqueous buffer by adding 10 mL n-octanol and 10 mL aqueous buffer into a glass vial and keep it rolling for 24 h. The mutually saturated n-octanol and aqueous buffer are obtained after phase separation. • 2. Weigh approximately 1.0 mg sample into a 3-mL glass vial with 1.0 mL of saturated n-octanol inside (obtained in step 1 above) and accelerate dissolution by ultrasonication. • 3. Add 1.0 mL of complementary saturated aqueous buffer into the vial. • 4. Prepare samples in triplicate. Seal the glass vial and mix on a rotary mixer at 25° C. for 24 h. • 5. The phases are separated after rolling. • 6. The concentrations of the compound in each phase are determined by HPLC. Samples in n-octanol phase are diluted 10 times by adding 100 μL of sample solution and 900 µL of ACN/H2O (v/v, 3:1) diluent and mixed well. • 7. Distribution coefficient, referred to as Dow, is calculated as the concentration of the test compound (both ionized and un-ionized) in the n-octanol phase divided by the corresponding concentration in the aqueous phase.

[6] = DVS (dynamic vapor sorption) moisture uptake
Description: (FIG. 5). Sample weight decreased rapidly when humidity decreased from 10% to 0%, which might be caused by loss of crystalline water.
DVS was measured via a SMS (Surface Measurement Systems) DVS Intrinsic.

[7] = Solubility of freeform in acetone/H2O systems with various water activities; settings: thermodynamic from solid
Description: (§4) To measure the solubility of freeform in acetone/H2O systems with various water activities, the above experiments were re-performed with addition of aw=0.3 acetone/H2O system. The suspension sample was centrifuged to obtain precipitate and supernatants. Solubility was tested for the supernatants after filtration, and isolated precipitate was tested by XRPD.

[8] = Thermodynamic relationships study: slurry competition in acetone/H2O systems; settings: RT
Description: Slurry competition was conducted in acetone/H2O systems with various water activities (0.0-1.0). […] Solids were separated and tested by XRPD.
as §4
Solids were separated and tested by XRPD.

[9] = Solubility profile of freeform Type D in citrate buffers; settings: aqueous citrate buffer, aqueous buffer; citrate salt prepared in situ, summary statement; read-out: aqueous solubility
Description: Additional solids were added into the sample to generate suspension if clear solution was obtained. The suspension was equilibrated via stirring (1000 rpm) for 24 hours. The suspension was centrifuged to obtain precipitate and supernatants. Solubility and pH were tested for the supernatants after filtration, and the isolated precipitate was tested by XRPD.

[10] = Formulation solution stability experiments at 5° C.; settings: thermodynamic from solid; for solubility at 2 days: aqueous buffer, 5° C., read-out: citrate solubility (supernatant concentration)
Description: The five formulations are shown in Table 7-2, and the characterization results are summarized in Example 7. The procedure is summarized below. • 1. […] Add about 149 mg citric acid into the volumetric flask of formulation 1/2/3/4. • 3. Add about 2037 mg of the corresponding sugar into the volumetric flask of formulation 2/3/4. […] Dilute to volume with water for formulation 1/2/3/4. • 5. Dilute to volume with pH=4.0 citrate/phosphate buffer for formulation 5. […] Sonicate the samples for about 2 mins, and filter with 0.45 µm filter to obtain a clear solution. • 7. Fill and seal about 0.7 mL solutions into 32 separate HPLC vials per each formulation and store under corresponding conditions.
The stability samples were stored at 5° C., 25° C., 40° C. and 60° C. for 28 days. After 1 day, 3 days, 7 days, 14 days and 28 days storage, the stability samples at 25° C., 40° C. and 60° C. were taken out for HPLC and pH tests. After 28 days storage, the stability samples at 5° C. were taken out for HPLC and pH tests.
Some of the stability samples at 5° C. became a suspension after storage for 37 days. The samples were then stirred (1000 rpm) at 5° C. for two days, resulting in all samples becoming a suspension. Three of the samples under each condition were characterized to determine the identity of precipitate, solubility of citrate salt at 5° C., and stability at 5° C. • 1. Sample 1 of formulations 1/2/3/4/5 after stirring was isolated, XPRD/^1H NMR of the solid was obtained, and purity/assay/concentration/pH of the supernatant were tested. • 2. Sample 2 of formulations 1/2/3/4/5 after stirring was stored at RT for about 1 hour, and the solid dissolved. Purity/assay/concentration of the solution was tested. • 3. Sample 3 of formulations 1/2/3/4/5 after stirring was sonicated at RT for about 2-3 mins, and the solid dissolved.

`CC(=O)NCC1CCN(Cc2cc(Oc3ccc(N4CCN(CCC(=O)O)CC4)nc3)nc(-c3cc(Cl)cc(Cl)c3)c2)CC1` [Compound (I) freeform] gave a pKa ([1]; 36.4% MeOH in water, MeOH concentration of 36.4%, read-out: psKa (apparent pKa 1), UV-metric) of 1.84, a pKa ([1]; 48.2% MeOH in water, MeOH concentration of 48.2%, read-out: psKa (apparent pKa 1), UV-metric) of 1.56 and a pKa ([1]; 63.9% MeOH in water, MeOH concentration of 63.9%, read-out: psKa (apparent pKa 1), UV-metric) of 1.27. The pKa ([1]; MeOH cosolvent, Yasuda-Shedlovsky extrapolation, psKa out of effective pH range 2-12, reference only, read-out: pKa 1, UV-metric) was 2.21, the pKa ([1]; MeOH cosolvent, Yasuda-Shedlovsky extrapolation, read-out: pKa 2, UV-metric) was 6.98 and the pKa ([1]; MeOH cosolvent, Yasuda-Shedlovsky extrapolation, read-out: pKa 3, UV-metric) was 7.68. The “S: solubility” value [2] was over 36.9 mg/mL, the “S: solubility” value [3] was 0.02 mg/mL and the pKa ([4]; read-out: pKa 1, pH-metric) was 3.41. For the same compound, the pKa ([4]; read-out: pKa 2, pH-metric) was 6.99, the pKa ([4]; read-out: pKa 3, pH-metric) was 7.56 and the logD at 24 h ([5]; n-octanol/aqueous buffer (pH 7.4), n-octanol/aqueous pH 7.4, three runs, read-out: Average of LogD7.4) was 2.23. For the same compound, the LogD7.4 ([5]; n-octanol/aqueous pH 7.4, single runs 1-3) was 2.24 and 2.23, the “Average of LogD7.4” value ([5]; n-octanol/aqueous pH 7.4, three runs) was 2.23 and the “Final pH in aqueous phase” value ([5]; runs 1-3) was 7.3. The “Concentration, Oil (n-octanol phase)” value ([5]; shake flask, 25° C., 24 h, runs 1-3) was 1140 µg/mL and 1100 µg/mL and 1070 µg/mL and the “Concentration, Aqueous” value ([5]; shake flask, pH 7.4 buffer, 25° C., 24 h, runs 1-3) was 7 µg/mL and 6 µg/mL.
In the case of `CC(=O)NCC1CCN(Cc2cc(Oc3ccc(N4CCN(CCC(=O)O)CC4)nc3)nc(-c3cc(Cl)cc(Cl)c3)c2)CC1` [Freeform Type B], the “Moisture Uptake (DVS)” value ([6]; 25° C., from 0% RH to 80% RH) is reported as 6.3%, the hygroscopicity ([6]; European pharmacopoeia 5.0 criteria, from DVS 0-80% RH at 25° C.) is reported as “hygroscopic” and the “form change after DVS test (XRPD)” value ([6]; XRPD before and after DVS) is reported as “No form change”. For the same compound, the solubility at 2 days ([7]; acetone (aw 0), organic solvent or mixture, Acetone, aw 0, RT) was 0.81 mg/mL (≈ 1.26 mM), the solubility at 2 days ([7]; acetone/H2O (986:14), aw 0.2, organic solvent or mixture, Acetone/H2O (986:14), aw 0.2, RT) was 3.96 mg/mL (≈ 6.18 mM) and the “water activity (aw) at which the form was obtained” value [8] was “below 0.2”.
With `CC(=O)NCC1CCN(Cc2cc(Oc3ccc(N4CCN(CCC(=O)O)CC4)nc3)nc(-c3cc(Cl)cc(Cl)c3)c2)CC1` [citrate salt] the solubility at 24 h [9] was over 50 mg/mL, the solubility at 2 days ([10]; formulation solution with sugar (supernatant), presence of sugars, lowest value) was 10.4 mg/mL and the solubility at 2 days ([10]; formulation solution without sugars (supernatant), without sugars) was 16.9 mg/mL. It also gave a solubility ([10]; formulation solutions 1/2/3/4/5, aqueous buffer, rt, all solids dissolved once warmed up, read-out: solubility of citrate salt) of over 20 mg/mL.
